According to article PMC12474298 (Viruses, 2025):

Columns and labels:
IMPα1 (human IMPα1ΔIBB) = IMPα1 (human IMPα1ΔIBB) (Homo sapiens, UniProt P52292); experiment: Fluorescence polarization assay, FITC-NLS peptide vs importin α1ΔIBB
IMPα3 (human IMPα3ΔIBB) = target: T1, IMPα3 (human IMPα3ΔIBB) (Homo sapiens, UniProt O00629); experiment: Fluorescence polarization assay, FITC-NLS peptide vs importin α3ΔIBB
T1 sequence (O00629 64-521 limits assumed): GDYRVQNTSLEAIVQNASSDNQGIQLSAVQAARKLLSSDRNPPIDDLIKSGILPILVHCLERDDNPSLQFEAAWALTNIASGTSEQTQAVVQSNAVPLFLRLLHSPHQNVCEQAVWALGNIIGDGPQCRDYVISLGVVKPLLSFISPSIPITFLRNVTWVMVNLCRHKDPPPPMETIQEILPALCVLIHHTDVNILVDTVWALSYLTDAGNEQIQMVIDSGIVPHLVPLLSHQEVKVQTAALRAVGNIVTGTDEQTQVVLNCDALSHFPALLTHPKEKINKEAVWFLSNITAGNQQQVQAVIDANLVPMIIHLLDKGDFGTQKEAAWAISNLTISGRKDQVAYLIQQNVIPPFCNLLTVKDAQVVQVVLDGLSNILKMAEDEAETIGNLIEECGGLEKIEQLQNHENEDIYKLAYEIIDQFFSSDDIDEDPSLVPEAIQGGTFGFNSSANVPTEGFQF

CC[C@H](C)[C@H](NC(=O)[C@H](CCCNC(=N)N)NC(=O)[C@H](CCCNC(=N)N)NC(=O)[C@H](CCCNC(=N)N)NC(=O)[C@H](CCCCN)NC(=O)[C@H](CCCCN)NC(=O)[C@@H](NC(=O)[C@H](CCC(=O)O)NC(=O)CCCCCNC(=S)Nc1ccc2c(c1)C(=O)OC21c2ccc(O)cc2Oc2cc(O)ccc21)[C@@H](C)O)C(=O)N[C@@H](CC(C)C)C(=O)N[C@@H](CCC(=O)O)C(N)=O [HaHV1 UL36h NLS]
Kd (IMPα1 (human IMPα1ΔIBB)): 226 nM | Kd (IMPα3 (human IMPα3ΔIBB)): 193 nM
